Among the test systems are DU-145; U-251; MOLT-4; TK-10; HOP-62; UACC-62; OVCAR-3; SK-MEL-5; UACC-257; MCF7; NCI-H226; SN12C; CCRF-CEM; HCT-15; SK-MEL-2.
What all share (assay): inhibition of tumour cell growth, NCI panel, 48 h

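Each compound was tested at five concentrations against cells in 96-well plates for 48 hours. GI50: concentration for 50% inhibition of growth.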 Activity calls are given as the source filed them. Rule as the data show it: active = GI50 up to about 1.1 µM and inactive = higher.

Consider `O=C1C(S(=O)(=O)c2ccccc2)=C(CS(=O)(=O)c2ccccc2)[C@@H](OCc2ccccc2)[C@@H]1OCc1ccccc1`, for which the GI50 in the experiment with DU-145 was 35.2 µM (inactive); in the experiment with U-251, 19.6 µM (inactive); with MOLT-4 it was 16.9 µM (inactive); in the experiment on TK-10 it was 31.8 µM (inactive); with HOP-62, 19 µM (inactive); with UACC-62, 17.3 µM (inactive). Also, the GI50 was 12.5 µM (inactive) in the experiment with OVCAR-3; 18.2 µM (inactive) with SK-MEL-5; 21.6 µM (inactive) with UACC-257; 27.4 µM (inactive) in the experiment on MCF7; 17.6 µM (inactive) in the experiment on NCI-H226; 22.3 µM (inactive) with SN12C. Also, the GI50 was 14 µM (inactive) in the experiment on CCRF-CEM, 18.2 µM in the experiment with HCT-15 and 16.2 µM (inactive) in the experiment with SK-MEL-2.

For the compound `CC1CCCN1CCCOC(=O)c1ccc(OC2C=CCCC2)cc1` (stereo not given), the GI50 in the experiment on DU-145 is > 100 µM (inactive); in the experiment with U-251, 37.6 µM (inactive); in the experiment with MOLT-4, 25.1 µM (inactive); in the experiment on TK-10 it was 36.9 µM (inactive); with HOP-62, 20.1 µM (inactive); in the experiment with UACC-62 it was > 100 µM (inactive). Besides, the GI50 in the experiment on OVCAR-3 was 39.2 µM (inactive); in the experiment with SK-MEL-5, 19.2 µM (inactive); in the experiment on UACC-257 it was 60.8 µM (inactive); in the experiment on MCF7, 25.1 µM (inactive); in the experiment with NCI-H226, 29.4 µM (inactive); in the experiment on SN12C, 39.4 µM (inactive). The results for the GI50 with CCRF-CEM, with HCT-15 and with SK-MEL-2 were 30.3 µM (inactive), 23.3 µM and > 100 µM (inactive), respectively.

`O=c1[nH]nc(Cc2ccccc2)n1/N=C/c1ccc([N+](=O)[O-])cc1`: the GI50 in the experiment on DU-145, with U-251, with MOLT-4, with TK-10, in the experiment on HOP-62 and with UACC-62 was > 100 µM (inactive) in each case. Also, the GI50 with OVCAR-3, in the experiment with SK-MEL-5, in the experiment with UACC-257, in the experiment with MCF7, in the experiment with NCI-H226 and with SN12C was > 100 µM (inactive) in each case. Further, the results for the GI50 in the experiment with CCRF-CEM, in the experiment on HCT-15 and in the experiment with SK-MEL-2 were > 100 µM (inactive), more than 100 µM and 49 µM (inactive), respectively.

For `CC(=O)On1c(-c2ccccc2-c2nc3ccccc3n2OC(C)=O)nc2ccccc21`, the GI50 is 49.7 µM (inactive) in the experiment on DU-145; 12.8 µM (inactive) with U-251; 11.3 µM (inactive) with MOLT-4; 68.1 µM (inactive) with TK-10; 97.9 µM (inactive) in the experiment on HOP-62; 21 µM (inactive) in the experiment with UACC-62. For the same compound, the GI50 was 24.3 µM (inactive) in the experiment on OVCAR-3; 3.4 µM (inactive) with SK-MEL-5; 12.5 µM (inactive) with UACC-257; 26.7 µM (inactive) in the experiment with MCF7; 25.9 µM (inactive) in the experiment on NCI-H226; 39.6 µM (inactive) with SN12C. For the same compound, the GI50 was 41.3 µM (inactive) in the experiment on CCRF-CEM, 67.5 µM with HCT-15 and 22.4 µM (inactive) with SK-MEL-2.

`COCCOCCOC1=C(Cl)C(=O)c2c(O)ccc(O)c2C1=O`: the GI50 in the experiment with DU-145 is 9.31 µM (inactive); in the experiment on U-251, 5.16 µM (inactive); in the experiment with MOLT-4 it was 0.303 µM (active); in the experiment on TK-10, 1.52 µM (inactive); in the experiment on HOP-62, 2.39 µM (inactive); with UACC-62, 1.63 µM (inactive). Further, the GI50 in the experiment on OVCAR-3 was 1.63 µM (inactive); with SK-MEL-5, 1.71 µM (inactive); in the experiment on UACC-257 it was 1.99 µM (inactive); with MCF7 it was 1.97 µM (inactive); in the experiment with NCI-H226, 18.1 µM (inactive); in the experiment with SN12C it was 1.89 µM (inactive). Moreover, the values for the GI50 in the experiment with CCRF-CEM, in the experiment with HCT-15 and with SK-MEL-2 were 0.414 µM (active), 1.61 µM and 1.17 µM (inactive), respectively.

Values taken from ChEMBL document CHEMBL1201862, “PubChem BioAssay data set” (2004).
